Data as given in patent US11279714B2, “Anti-infective compounds” (priority 2014, dated 2022).
In brackets after ≈: the same amount, converted by molar mass.

Columns and labels:
[1] = test system: M. tuberculosis H37Rv expressing the green fluorescent protein (H37Rv-GFP); test: microbe, parasite or virus in culture; assay type: cell-based; settings: Mycobacterium tuberculosis, H37RV, 120 h; read-out: QUM (MIC50)
[2] = test system: Raw 264.7 cells infected with H37Rv-GFP; test: microbe, parasite or virus in culture; assay type: cell-based, M. tuberculosis; settings: Mycobacterium tuberculosis, H37RV, 120 h; read-out: QIM (MIC50)

Compound | melting point [°C] | MIC50 [1] [µM] | MIC50 [2] [µM]
Cn1cc(F)c(-c2ccc(NC(=O)c3cc4sc(N5CCOCC5)nc4s3)cc2)n1 [Compound 162] | 280.5 | 1 to 20 (≈ 0.444 to 8.87 µg/mL) | < 1
COc1ccc(NC(=O)c2cc3nc(N4CCCCC4)sc3s2)cn1 [Compound 10] | 270 | > 20 | > 20
CCN(CC)C(=O)c1cc2sc(N3CCCCC3)nc2s1 [Compound 57] | 84 | 1 to 20 (≈ 0.323 to 6.47 µg/mL) | 1 to 20 (≈ 0.323 to 6.47 µg/mL)
COc1ccc(NC(=O)c2cc3sc(N4CCC(OCc5ccccc5)CC4)nc3s2)cc1 [Compound 77] | 190.3 | 1 to 20 (≈ 0.48 to 9.59 µg/mL) | < 1
O=C(Nc1ccc(-c2cc3n(n2)CCO3)cc1)c1cc2sc(N3CCOCC3)nc2s1 [Compound 164] | 361.2 | > 20 | > 20
Cc1nc2cc(NC(=O)c3cc4sc(N5CCC(CO)CC5)nc4s3)ccc2o1 [Compound 144] | 196.4 | < 1 | < 1
Cn1ccc(-c2ccc(NC(=O)c3cc4sc(N5CCOCC5)nc4s3)cc2)n1 [Compound 145] | 314 | 1 to 20 (≈ 0.426 to 8.51 µg/mL) | < 1
